Experimental data: PubChem BioAssay AID507

System: Human MGC4172 (short-chain dehydrogenase/reductase, DHRS11)
Test: DHRS11 SDR ligand binding via Tm shift – biophysical, DSF, SYPRO orange, recombinant human protein (AID 507)
Conditions: DSF SYPRO orange thermal shift, at 100 µM, protein 2 µM, buffer 10 mM HEPES, pH 7.5, NaCl 150 mM, NADPH 200 µM, stronger effect = higher value

CN(CCOc1ccc(CC2SC(=O)NC2=O)cc1)c1ccccn1 (stereo unspecified)
Tm shift: 2.3 Celsius
